Paper PMC7285321, “Evaluation of Indolocarbazoles from Streptomyces sanyensis as a Novel Source of Therapeutic Agents against the Brain-Eating Amoeba Naegleria fowleri” (Microorganisms, 2020)
Read-outs that look alike come from different tables or passages of the source.

Columns and labels:
[1] = system: Naegleria fowleri ATCC 30808 trophozoites; assay: In vitro amoebicidal activity, alamarBlue colorimetric assay, trophozoites; details: for SI (CC50/IC50): CC50 J774A.1 / IC50 N. fowleri ATCC 30808; for IC50: Naegleria fowleri
Description: (§1) Amoebae were grown at 37 °C in axenic conditions in 2% (w/v) bactocasitone medium (Thermo Fisher Scientific, Madrid, Spain) supplemented with 10% (v/v) foetal bovine serum (FBS), […] of penicillin G and 0,5 mg/mL of streptomycin sulphate (Sigma-Aldrich, Madrid, Spain). As required by the Spanish Government biosafety guidelines for this pathogen, amoebic strains were cultured in a biological security facility level 3 at the Instituto Universitario de Enfermedades Tropicales y Salud Pública de Canarias, Universidad de La Laguna.
(§2) The in vitro activity of the four ICZs included in this study was evaluated against trophozoites of two Naegleria fowleri type strains using a colorimetric assay. Amoebae (2 × 10^5 cells/mL) were placed in a sterile 96-well microtiter plate. Next, 50 μL of a serial dilution of each of the ICZs (in N. fowleri culture medium) was added to the plate. In all the activity assays, 2% DMSO was used to dissolve the highest dose of the molecules to prevent generation of any effects in the amoebic cells. Negative controls were also included in the assays, consisting of the addition of medium alone to the seeded trophozoites as previously described. Miltefosine and amphotericin B were used as positive controls whereas the addition of medium alone to the seeded trophozoites was considered as the negative control. Lastly, 10% of the alamarBlue® reagent was placed in each well, and plates were incubated with slight agitation for 48 h at 37 °C. After that, activity plates were evaluated with an EnSpire® Multimode Plate Reader (Perkin Elmer, Madrid, Spain) using a wavelength of 570 nm and a reference wavelength of 630 nm.
(§3) The IC90 values of the compounds were calculated using a GraphPad calculator (GraphPad Software, San Diego, CA, USA) based on the calculated IC50 and the Hill Slope (H). All experiments were performed in triplicate, and the mean values were also calculated.

[2] = Cytotoxicity assay, alamarBlue; format: cell-based; details: mouse, 37 °C, mean ± SD, read-out: Murine Macrophage J774.A1 CC50
Description: (§4) Evaluation of in vitro toxicity was carried out using the murine macrophage J774A.1 cell line (ATCC # TIB-67, LG Promochem, Barcelona, Spain) which was routinely cultured in Dulbecco’s Modified Eagle’s medium (DMEM, w/v) supplemented with 10% (v/v) FBS and 10 µg/mL of gentamicin (Sigma–Aldrich, Madrid, Spain), at 37 °C in a 5% CO2 atmosphere as previously described.
(§5) Cytotoxicity of the compounds was evaluated using toxicity assays established in our laboratory based on the evaluation of the toxicity induced in a murine macrophages J774.A1 cell line (ATCC® TIB-67™). Concisely, different concentrations of the ICZs were incubated with the cell line, and alamarBlue® reagent (10% of medium volume) was placed in each well and incubated for 24 h, at 37 °C under 5% CO2 conditions. Results were examined as described in Section 2.4.1.

[3] = system: Naegleria fowleri ATCC 30215 trophozoites; assay: In vitro amoebicidal activity, alamarBlue colorimetric assay, trophozoites; format: cell-based; details: for IC50: ATCC30215, trophozoites, 48 h, 37 °C, mean ± SD, read-out: N. fowleri ATCC 30215 IC50
Description: as §1, §2, §3

[4] = system: Naegleria fowleri trophozoites; assay: Cellular membrane damage, SYTOX Green assay; format: cell-based; details: IC90, 24 h; both strains
Description: The SYTOX Green assay (Life Technologies, Madrid, Spain) allows the detection of alterations in the permeability of the cell membrane. The SYTOX Green dye binds to DNA, showing intense green fluorescence, only if the plasmatic membrane is damaged and allows it to enter the cytoplasm. […] After 24 h, 1 μM SYTOX Green (final concentration) was added to the cell culture and incubated for 15 min. Next, cells were examined in an EVOS FL Cell Imaging System AMF4300 (Life Technologies, Madrid, Spain).

[5] = system: Naegleria fowleri trophozoites; assay: Mitochondrial membrane potential, JC-1 assay; format: cell-based; details: IC90, 24 h; similar for both strains
Description: The evaluation of mitochondrial function disruption in STS-treated amoebae was carried out using the Celltiter-Glo® Luminescent Cell Viability Assay (Promega Biotech Ibérica, Madrid, Spain) and the JC-1 Mitochondrial Membrane Potential Detection Kit (Cayman Chemicals, Vitro SA, Madrid, Spain). The first kit detects the levels of ATP in STS-treated cells in comparison to non-treated cells.
Images were captured using an EVOS FL Cell Imaging System AMF4300 (Life Technologies, Madrid, Spain). The obtained staining pattern permitted the identification of two groups in a cellular population: live cells which would show only red fluorescence and cells presenting low mitochondrial membrane potential (undergoing PCD) which would show an intense level of green and red fluorescence.

[6] = system: Naegleria fowleri trophozoites; assay: Intracellular ROS generation, CellROX Deep Red assay; format: cell-based; details: IC90, 24 h; similar for both strains
Description: Next, cells were exposed to 5 μM CellROX Deep Red for 30 min at 37 °C in the dark and observed after using the EVOS FL Cell Imaging System AMF4300 (Life Technologies, Madrid, Spain). The presence of intracellular ROS was shown by the detection of high red fluorescence in the cells.

[7] = system: Naegleria fowleri trophozoites; assay: Detection of DNA/chromatin condensation, Hoechst 33342/propidium iodide double stain; format: cell-based; details: IC90, 24 h; similar for both strains
Source text: The double-stain apoptosis detection kit constituted by Hoechst 33342 and propidium iodide (PI) (Life Technologies, Madrid. Spain) and an EVOS FL Cell Imaging System AMF4300 (Life Technologies, Madrid, Spain) were used in these experiments as per the manufacturer’s instructions. […] The assay is able to separate three groups of cell populations: dead cells which show an intense red and low-blue fluorescence; healthy cells showing a low level of fluorescence, and cells in PCD presenting intense blue fluorescence (condensed chromatin/DNA).

[8] = system: murine macrophage J774A.1 cell line; assay: Cytotoxicity assay, alamarBlue; format: cell-based; details: 24 h, 37 °C, mean ± SD; read-out: Murine Macrophage J774.A1 CC50
Description: as §4, §5

[9] = ATCC30808, 48 h, read-out: N. fowleri ATCC 30808 IC50

SMILES | SI (CC50/IC50) [1] | CC50 at 24 h ([2]; J774A.1 macrophage cell line) [nM] | Activity against N. fowleri, in words [1] | IC50 [1, 9] [nM] | other results
CCCCCCCCCCCCCCCCOP(=O)([O-])OCC[N+](C)(C)C [Miltefosine, miltefosine] | 3.3 | 128000 ± 8850 |  |  | 
COC1=C(C)O[C@@H]2C[C@@]1(OC)n1c3ccccc3c3c4c(c5c6ccccc6n2c5c31)C(=O)NC4 [SCZ B (4), streptocarbazole B] | >1.7 | > 20000 | only active against the N. fowleri ATCC 30808 strain | 11500 ± 310 | 
CC12OC(CC1(O)C(=O)O)n1c3ccccc3c3c4c(c5c6ccccc6n2c5c31)CNC4=O (centres unmarked) [K252b (7), K252b] |  |  |  | > 20000 | 
O=C1NCc2c1c1c3ccccc3[nH]c1c1[nH]c3ccccc3c21 [K252c (8), K252c] |  |  | no activity was observed | > 20000 | 
C[C@@H]1[C@H](O)[C@@H](C)/C=C/C=C/C=C/C=C/C=C/C=C/C=C/[C@H](O[C@@H]2O[C@H](C)[C@@H](O)[C@H](N)[C@@H]2O)C[C@@H]2O[C@](O)(C[C@@H](O)C[C@@H](O)[C@H](O)CC[C@@H](O)C[C@@H](O)CC(=O)O[C@H]1C)C[C@H](O)[C@H]2C(=O)O [Amphotericin B] | ≥1666.7 | ≥ 200000 |  | 120 ± 30 | IC50 [3]: 160 ± 20 nM
COC(=O)C1(O)CC2OC1(C)n1c3ccccc3c3c4c(c5c6ccccc6n2c5c31)C(=O)NC4 (centres unmarked) [K252a (6), K252a] | 3.2 |  |  | 340 ± 90 | IC50 ([1]; ATCC30808, read-out: Activity (IC50) N. fowleri ATCC 30808, text): 338 ± 90 nM; CC50 at 24 h [2]: 1070 ± 210 nM; IC50 [3]: 120 ± 30 nM
CO[C@@H]1C(=O)C[C@H]2O[C@]1(C)n1c3ccccc3c3c4c(c5c6ccccc6n2c5c31)C(=O)NC4 [4′D4′OSTS (3), 4′-demethylamino-4′-oxostaurosporine] | >1.9 | > 20000 | only active against the N. fowleri ATCC 30808 strain | 10800 ± 2920 | 
CN[C@@H]1C[C@H]2O[C@@](C)([C@@H]1OC)n1c3ccccc3c3c4c(c5c6ccccc6n2c5c31)C(=O)NC4 [STS (1), staurosporine] |  |  |  |  | Plasmatic membrane permeabilization (SYTOX Green) [4]: caused plasmatic membrane permeabilization in both strains; Mitochondrial membrane potential (JC-1) [5]: Mitochondrial potential collapse was observed; Intracellular ROS (CellROX Deep Red) [6]: Increased levels of intracellular ROS; Chromatin condensation (Hoechst stain) [7]: the nuclei are intense blue; IC90 ([3]; ATCC30215, calculated from IC50 and Hill slope, table footnote, unit inferred, read-out: IC90 N. fowleri ATCC 30215): 970 nM
O=C1NC(=O)c2c1c1c3ccccc3[nH]c1c1[nH]c3ccccc3c21 [Arcyriflavin A (9), arcyriaflavin A] |  |  | no activity was observed | > 20000 | 
CN[C@@H]1C[C@H]2O[C@@](C)([C@@H]1OC)n1c3ccccc3c3c4c(c5c6ccccc6n2c5c31)C(=O)NC4=O [7OSTS (2), 7-oxostaurosporine] | 4.1 |  |  | 1280 ± 350 | CC50 [8]: 5200 ± 1750 nM; IC50 [3]: 1070 ± 230 nM
CO[C@H]1[C@H](O)[C@@H](O)[C@H](n2c3c(Cl)cccc3c3c4c(c5c6cccc(Cl)c6[nH]c5c32)C(=O)NC4=O)O[C@@H]1CO [Rebeccamycin (5), rebeccamycin] |  |  | not active | > 20000 | 
